The values that follow come from US20240002395A1, “COMPOUNDS AND THEIR USE FOR TREATING NEUROPATHIC PAIN” (The Johns Hopkins University, priority 2020, published 2024).

Usually EC50 stands for the concentration needed to bring the measured effect to its halfway point. One may read the melting point as the temperature, or range, at which the solid turns liquid.

For one data set, the target named is T1, human MrgprX1 (Homo sapiens, UniProt Q96LB2).
T1 construct: expressed in transfected cells
The data set is described as follows: MrgprX1 positive allosteric modulator (PAM) calcium FLIPR assay in HEK293 cells. To be noted: PAM activity in presence of EC20 concentration of BAM8-22; HEK293 cells stably transfected with human MrgprX1. The data set is classed as cell-based. How it is done:
HEK293 cells stably transfected with human MrgprX1 were plated onto poly-D-lysine-coated, black-walled, 96-well plates at a seeding density of 12,000 cells/well and grown for two days. On the day of the experiment, cells were incubated with Fluo-4 AM 2 μM, pluronic acid 0.04% and Trypan Red 1% in HBSS (pH 7.4, 100 μL) for 1 h at 37° C. For each different passage of cells, a BAM8-22 dose response was first conducted and the BAM8-22 EC20 determined. Test compounds were then dissolved and serially diluted in DMSO, further diluted with Trypan Red (1%)-containing HBSS (50 μL) and added to cells (0.33% DMSO concentration by volume) to first monitor for agonist activity. After 2.5 min, BAM8-22 at 4-fold EC20 (50 μL) was added to cells (0.25% DMSO concentration by volume) and the cells imaged on the FLIPR for an additional 2 minutes to monitor the test compounds for PAM activity. Finally, data were normalized to fluorescence signals obtained from 250 nM of BAM8-22 (maximum) and BAM8-22 at its EC20 concentration (minimum). EC50 of a test compound was defined as the concentration required to provoke a response halfway between the minimum and maximum response in the presence of EC20 concentration of BAM8-22.

Bounds are passed on as bounds.

T1 sequence (Q96LB2 whole entry): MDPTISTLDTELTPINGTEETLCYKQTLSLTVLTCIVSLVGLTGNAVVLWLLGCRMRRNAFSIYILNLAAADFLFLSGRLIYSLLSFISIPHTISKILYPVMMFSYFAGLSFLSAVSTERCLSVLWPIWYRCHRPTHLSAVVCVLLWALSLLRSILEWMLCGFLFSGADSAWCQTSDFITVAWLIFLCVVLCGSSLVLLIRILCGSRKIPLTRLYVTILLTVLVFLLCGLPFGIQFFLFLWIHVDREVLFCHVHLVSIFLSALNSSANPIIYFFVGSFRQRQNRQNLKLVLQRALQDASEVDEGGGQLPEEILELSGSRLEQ

Take `CC1CCCCC1Oc1ncnc2sc(C(C)(C)C)c(-c3ccc(Cl)c(Cl)c3)c12` (mixture of isomers) [Compound 7ac, 6-tert-butyl-5-(3,4-dichlorophenyl)-4-(2-methylcyclohexyloxy)thieno[2,3-d]pyrimidine]: the EC50 at human MrgprX1 amounted to 100 nM.
On to `Cc1ccccc1Oc1ncnc2oc(-c3ccccc3)cc12` [B, 6-Phenyl-4-(o-tolyloxy)furo[2,3-d]pyrimidine, reference compound], for which the EC50 at human MrgprX1 was 1000 nM.
For `Cc1cccc(Oc2ncnc3oc(-c4ccccc4)cc23)c1C` [C, 4-(2,3-Dimethylphenoxy)-6-phenylfuro[2,3-d]pyrimidine, reference compound], the EC50 at human MrgprX1 is 70000 nM.
For `CC(C)(C)c1sc2ncnc(OC3CCCCC3)c2c1-c1ccc(Cl)c(Cl)c1` [Compound 7aa, 6-tert-butyl-4-(cyclohexyloxy)-5-(3,4-dichlorophenyl)thieno[2,3-d]pyrimidine], the melting point turned out to be 121 °C. Further, the EC50 at human MrgprX1 was 100 nM.
As to `CN1CCCC(Oc2ncnc3sc(C(C)(C)C)c(-c4ccc(Cl)c(Cl)c4)c23)C1` (stereo not shown) [Compound 7ab, 6-tert-butyl-5-(3,4-dichlorophenyl)-4-(1-methylpiperidin-3-yloxy)thieno[2,3-d]pyrimidine], the EC50 on human MrgprX1 was found to be 6000 nM.
`CC(C)(C)c1sc2ncnc(OC3CC4CCC3C4)c2c1-c1ccc(Cl)c(Cl)c1` (stereo not shown) [Compound 7ad, 4-(bicyclo[2.2.1]heptan-2-yloxy)-6-tert-butyl-5-(3,4-dichlorophenyl)thieno[2,3-d]pyrimidine]: the melting point came out at 152 °C. The EC50 at human MrgprX1 was 300 nM.
`CC(C)(C)c1sc2ncnc(OC3CCCCCC3)c2c1-c1ccc(Cl)c(Cl)c1` [Compound 7ae, 6-tert-butyl-4-(cycloheptyloxy)-5-(3,4-dichlorophenyl)thieno[2,3-d]pyrimidine]: on human MrgprX1, the EC50 amounted to 400 nM.
With `CC(C)(C)c1sc2ncnc(OC3CCCCC3C(F)(F)F)c2c1-c1ccc(Cl)c(Cl)c1` (stereo not shown) [Compound 7af, 6-tert-butyl-5-(3,4-dichlorophenyl)-4-(2-(trifluoromethyl)cyclohexyloxy)thieno[2,3-d]pyrimidine], the melting point came out at 139 °C. For the same compound, the EC50 on human MrgprX1 came out at 100 nM.
For `CC(C)(C)c1sc2ncnc(OC3CCCCC3F)c2c1-c1ccc(Cl)c(Cl)c1` (stereo not shown) [Compound 7ag, 6-tert-butyl-5-(3,4-dichlorophenyl)-4-(2-fluorocyclohexyloxy)thieno[2,3-d]pyrimidine], in that order: 144 °C and 100 nM.
`CC(C)(C)c1sc2ncnc(OC3CCCCC3(C)C)c2c1-c1ccc(Cl)c(Cl)c1` (stereo not shown) [Compound 7ah, 6-tert-butyl-5-(3,4-dichlorophenyl)-4-(2,2-dimethylcyclohexyloxy)thieno[2,3-d]pyrimidine]: the melting point was found to be 128 °C. The EC50 at human MrgprX1 is 300 nM.
The corresponding values for `CC(C)(C)c1sc2ncnc(OC3(C(F)(F)F)CCCCC3)c2c1-c1ccc(Cl)c(Cl)c1` [Compound 7ai, 6-tert-butyl-5-(3,4-dichlorophenyl)-4-(1-(trifluoromethyl)cyclohexyloxy)thieno[2,3-d]pyrimidine] are 142 °C and greater than 10000 nM.
`CC(C)(C)c1sc2ncnc(Oc3ccccc3F)c2c1-c1ccc(F)c(F)c1` [Compound 7aj, 6-tert-butyl-5-(3,4-difluorophenyl)-4-(2-fluorophenoxy)thieno[2,3-d]pyrimidine] gave a melting point of 171 °C.
Take `CC(C)(C)c1sc2ncnc(Oc3c(F)cccc3F)c2c1-c1ccc(F)c(F)c1` [Compound 7ak, 6-tert-butyl-4-(2,6-difluorophenoxy)-5-(3,4-difluorophenyl)thieno[2,3-d]pyrimidine]: the melting point worked out at 185 °C. Moreover, the concentration for a half-maximal effect (EC50) at human MrgprX1 was found to be 70 nM.
The corresponding values for `CC(C)(C)c1sc2ncnc(Oc3ccccc3OC(F)(F)F)c2c1-c1ccc(F)c(F)c1` [Compound 7am, 6-tert-butyl-5-(3,4-difluorophenyl)-4-(2-(trifluoromethoxy)phenoxy)thieno[2,3-d]pyrimidine] are 146 °C and 70 nM.
Compound `CC(C)(C)c1sc2ncnc(Oc3ccccc3OC(F)(F)F)c2c1-c1ccc(Cl)cc1` [Compound 7an, 6-tert-butyl-5-(4-chlorophenyl)-4-(2-(trifluoromethoxy)phenoxy)thieno[2,3-d]pyrimidine] had a melting point of 136 °C. On human MrgprX1, the EC50 came to 80 nM.
The corresponding values for `CC(C)(C)c1sc2ncnc(Oc3c(F)cccc3F)c2c1-c1ccc(Cl)cc1` [Compound 7ap, 6-tert-butyl-5-(4-chlorophenyl)-4-(2,6-difluorophenoxy)thieno[2,3-d]pyrimidine] are 176 °C and 30 nM.
For `CC(C)(C)c1sc2ncnc(Oc3ccccc3OC(F)(F)F)c2c1-c1cccc(Cl)c1` [Compound 7aq, 6-tert-butyl-5-(3-chlorophenyl)-4-(2-(trifluoromethoxy)phenoxy)thieno[2,3-d]pyrimidine], in that order: 129 °C and 100 nM.
For `CC(C)(C)c1sc2ncnc(Oc3c(F)cccc3OC(F)(F)F)c2c1-c1cccc(Cl)c1` [Compound 7ar, 6-tert-butyl-5-(3-chlorophenyl)-4-(2-fluoro-6-(trifluoromethoxy)phenoxy)thieno[2,3-d]pyrimidine], in that order: 126 °C and 30 nM.
As to `CCOC(=O)c1c(C(C)(C)C)sc2ncnc(Oc3c(F)cccc3OC(F)(F)F)c12` [Compound 7be, Ethyl 6-(tert-butyl)-4-(2-fluoro-6-(trifluoromethoxy)phenoxy)thieno[2,3 d]pyrimidine-5-carboxylate], at human MrgprX1, the EC50 was 60 nM.
Regarding `CC1CCCN1c1c(C(C)(C)C)sc2ncnc(Oc3c(F)cccc3OC(F)(F)F)c12` (stereo not shown) [Compound 7bg, 6-(tert-butyl)-4-(2-fluoro-6-(trifluoromethoxy)phenoxy)-5-(2-methylpyrrolidin-1-yl)thieno[2,3-d]pyrimidine], the EC50 at human MrgprX1 turned out to be 70 nM.
Same read-out and setting: then `CC(C)(C)c1sc2ncnc(Oc3ccc([N+](=O)[O-])cc3OC(F)(F)F)c2c1-c1ccc(Cl)c(Cl)c1` [Compound 7f, 6-tert-butyl-5-(3,4-dichlorophenyl)-4-(4-nitro-2-(trifluoromethoxy)phenoxy)thieno[2,3-d]pyrimidine], with greater than 100000 nM.
Consider `COc1ncccc1Oc1ncnc2sc(C(C)(C)C)c(-c3ccc(Cl)c(Cl)c3)c12` [Compound 7i, 6-tert-butyl-5-(3,4-dichlorophenyl)-4-(2-methoxypyridin-3-yloxy)thieno[2,3-d]pyrimidine], for which the melting point was found to be 173 °C.
Consider `CC(C)(C)c1sc2ncnc(Oc3ccccc3C#N)c2c1-c1ccc(Cl)c(Cl)c1` [Compound 7v, 2-(6-tert-butyl-5-(3,4-dichlorophenyl)thieno[2,3-d]pyrimidin-4-yloxy)benzonitrile], for which, on human MrgprX1, the EC50 is 500 nM.
Turning to `CN(C)C(=O)COc1ncnc2scc(-c3ccc(F)cc3)c12` [Compound A, 2-((5-(4-Fluorophenyl)thieno[2,3-d]pyrimidin-4-yl)oxy)-N,N-dimethylacetamide, reference compound], the EC50 at human MrgprX1 was greater than 100000 nM.
For `Cc1ccc(Oc2ncnc3sccc23)cc1` [E, 4-(p-Tolyloxy)thieno[2,3-d]pyrimidine, reference compound], the EC50 at human MrgprX1 was found to be 900 nM.
